Measured values published in patent US11395486B2, “Antibacterial and antifungal composition” (ADEKA CORPORATION, priority 2017, dated 2022).

Test: Evaluation of solution appearance
Format: physicochemical
Conditions: solution adjusted to the five-kind MIC, 4 mL tube, allowed to stand still, visually observed
Procedure: […] of each of the test microbial liquids was dispensed onto a microplate, and further, […] of each of antibacterial and antifungal solutions, in which the antibacterial and antifungal compositions prepared in Examples 1 and 2 and Comparative Examples 1 to 11 were adjusted to various concentrations with a culture medium, was added to the test microbial liquid, followed by stirring, to obtain a mixed solution. In this case, the pH of each of the antibacterial and antifungal solutions was from 6.89 to 7.24. Next, in each of the mixed solutions, culture was performed as follows. The bacterium mixed solution was cultured in a constant-temperature reservoir at 37° C. for 24 hours. The yeast mixed solution was cultured in the constant-temperature reservoir at 25° C. for 3 days. The mold mixed solution was cultured in the constant-temperature reservoir at 25° C. for 1 week. […] In addition, the appearance of the antibacterial and antifungal solution was evaluated as follows. […] The appearance of the solution was visually observed and evaluated in accordance with the following criteria. […]

Structure (SMILES) | Evaluation of solution appearance
OCc1ccccc1 [Comparative Example 6, benzyl alcohol] | ◯
O=C([O-])c1ccccc1.[Na+] [compound 7, sodium benzoate] | ◯
